# From US10280146B2, “Pyrimidone compounds used as Lp-PLA2 inhibitors and pharmaceutical compositions thereof” (Shanghai Institute of Materia Medica, Chinese Academy of …, priority 2014, dated 2019)
# Assays:
# [1] = biological target: T1, Lp-PLA2 (rabbit serum as the source of enzyme) (Oryctolagus cuniculus, UniProt G1SE06); test: In vitro inhibitory activity on Lp-PLA2, rabbit serum as the source of enzyme (2-thio-PAF/DTNB); format: biochemical; settings: read-out: Inhibitory ratio, % on Lp-PLA2 (rabbit serum as the source of enzyme); for inhibition at 0.1 µM: 100 nM compound; for inhibition at 1 µM: 1 μM compound; for inhibition at 0.01 µM: 10 nM compound, — = no inhibitory activity
# T1 construct: Rabbit Serum as the Source of Enzyme; from tissue; host or cells: rabbit serum
# T1 sequence (G1SE06 22-423): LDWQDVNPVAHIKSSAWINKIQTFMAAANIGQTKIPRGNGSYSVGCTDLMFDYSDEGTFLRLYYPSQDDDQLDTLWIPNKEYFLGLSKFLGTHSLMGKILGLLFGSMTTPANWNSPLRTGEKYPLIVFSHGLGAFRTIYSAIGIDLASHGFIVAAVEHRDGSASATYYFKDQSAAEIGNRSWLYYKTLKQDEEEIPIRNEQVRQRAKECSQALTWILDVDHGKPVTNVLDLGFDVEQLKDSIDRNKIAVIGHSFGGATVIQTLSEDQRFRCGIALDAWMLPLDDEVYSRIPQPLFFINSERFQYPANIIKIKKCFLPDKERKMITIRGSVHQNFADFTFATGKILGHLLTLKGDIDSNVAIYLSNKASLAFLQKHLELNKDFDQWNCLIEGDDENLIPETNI
# Procedure: (§1) 0.1M Tris-HCl, 1 mM EGTA, PH 7.2
# (§2) Anhydrous ethanol was used as solvent to make a 25 mg/ml mother liquor. The solution was aliquoted, stored at −80° C. and diluted 900 times before use (about 50 μM of concentration)
# (§3) 3) DTNB (5,5′-dithio-bis-(2-nitrobenzoic acid), Sigma, Lot D8130)
# (§4) The solution was prepared just before use.
# (§5) 4) Compound was dissolved in DMSO to a suitable concentration.
# (§6) Lp-PLA2 activity was determined by using 2-thio-PAF as substrate. The thiol group produced upon the hydrolysis of 2-thio-PAF can react with DTNB to generate a yellow substance. The optical density at 414 nm can be detected to reflect Lp-PLA2 activity.
# 1.1 Determination of the Inhibitory Activity of the Compounds on Lp-PLA2 (Rabbit Serum as the Source of Enzyme) (In Vitro)
# 1) The corresponding reagents were added according to Table 1 and mixed uniformly by shaking.
# (§7) 2) 10 μL of DTNB was added to each well.
# (§8) 3) 150 μL of 2-thio-PAF was added to each well and shaken for 15 s on a microplate reader to mix the liquid in the well uniformly.
# [2] = biological target: T2, Lp-PLA2 (human recombinant enzyme as the source of enzyme) (Homo sapiens, UniProt Q13093); test: In vitro inhibitory activity on Lp-PLA2, human recombinant enzyme (2-thio-PAF/DTNB); format: biochemical; settings: read-out: inhibitory ratio, % on Lp-PLA2 (human recombinant enzyme as the source of enzyme); for inhibition at 0.01 µM: 10 nM compound; for inhibition at 0.1 µM: 100 nM compound
# T2 sequence (Q13093 22-441): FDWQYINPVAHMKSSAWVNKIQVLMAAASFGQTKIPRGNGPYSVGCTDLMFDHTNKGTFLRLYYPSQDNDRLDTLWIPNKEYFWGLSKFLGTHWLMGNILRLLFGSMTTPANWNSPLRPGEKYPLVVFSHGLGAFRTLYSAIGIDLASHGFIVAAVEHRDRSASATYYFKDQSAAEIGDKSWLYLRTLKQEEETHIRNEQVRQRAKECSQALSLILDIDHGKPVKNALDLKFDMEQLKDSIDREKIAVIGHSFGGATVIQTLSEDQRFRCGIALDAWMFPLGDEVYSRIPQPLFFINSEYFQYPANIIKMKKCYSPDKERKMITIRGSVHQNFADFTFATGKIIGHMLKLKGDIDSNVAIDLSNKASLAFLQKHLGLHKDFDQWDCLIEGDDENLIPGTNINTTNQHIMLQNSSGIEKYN
# Procedure: as §1, §2, §3, §4, §5, §6
# 1.2 Determination of the Inhibitory Activity of the Compounds on Lp-PLA2 (Human Recombinant Enzyme as the Source of Enzyme) (In Vitro)
# 1) The corresponding reagents were added according to Table 3 and mixed uniformly by shaking.
# as §7, §8
# [3] = test system: Lp-PLA2 (rat serum as the source of enzyme); test: In vitro inhibitory activity on Lp-PLA2, rat serum as the source of enzyme (2-thio-PAF/DTNB); format: biochemical; design: key: “—” indicates no inhibitory activity
# Procedure: as §1, §2, §3, §4, §5, §6
# 1.3 Determination of the Inhibitory Activity of the Compounds on Lp-PLA2 (Rat Serum as the Source of Enzyme (In Vitro)
# 1) The corresponding reagents were added according to Table 5 and mixed uniformly by shaking.
# as §7, §8
# [4] = test system: STZ-induced diabetic rats; test: Retinal thickness of STZ-induced diabetic rats, long-term administration; format: in vivo, rat; settings: 25 mg/kg/day oral, 4 weeks
# Source text: Test compound: […] Positive control: Darapladib, dissolved in ultrapure water. […] All SD rats were preconditioned for 3-5 days. […] The diabetic model was established when the blood glucose of the rats was more than 10 mmol/L. […] The rats were administrated once a day. […] The eyeballs of the rats were removed, frozen and sectioned and the thickness of each slice was 8 μm. The slice was stained with conventional hematoxylin/eosin and photographed with a 400-fold optical microscope (Eclipse 80i, Nikon). The thickness of the retina was analyzed using the software Image-Pro plus 6.0. Five points were selected in each photo. Statistical analysis was performed with the EXCEL 2007 software. […] The experiment results were evaluated by Student T test.
# [5] = test system: spontaneous type 2 diabetes ZDF rats; test: Long-term administration in spontaneous type 2 diabetes ZDF rats (blood glucose and other biochemical indexes); format: in vivo, rat
# Source text: Positive control: metformin, produced by China-US Shanghai Squibb Pharmaceutical Co., Ltd.; dissolved in ultra-pure water.
# Varieties: ZDF rats, ZL rats; Grade: SPF grade; Age: 56-62 days; Gender: Male; Source: Beijing Weitong Lihua Experimental Animal Co., Ltd.
# The kits for total cholesterol (TC), triglyceride (TG), high density lipoprotein cholesterol (HDL-C), low density lipoprotein cholesterol (LDL-C), blood glucose (GLU), aspartate transferase (AST), alanine aminotransferase (ALT), alkaline phosphatase (ALP), urea (BUN), creatinine (CREA) and the like were purchased from Shanghai Shenneng Desai Diagnostic Technology Co., Ltd. The reagents for glycosylated hemoglobin (HbAlc) assay was purchased from Trinity Biotech Corporation. Insulin ELISA Assay Kit was purchased from BertinPharma Corporation. Urine microalbumin (mALB) and other ELISA kits were purchased from Nanjing Jiancheng Bioengineering Institute.
# Two ZDF rat groups were orally administered with the compound of example 11 and metformin, respectively. […] The dose of metformin was 300 mg/kg/day. Both were administered for a period of 6 weeks.
# Thirty male ZDF rats (56˜62 days old) were fed with Purina #5008 feed (purchased from Nongbiao Purina Feed Co., Ltd.) and the other 6 ZL rats were fed with normal diet as normal control. After fed for 2 weeks, the empty body weights of the fasting rats (fasting for 10 h, free to drink water) were weighed. 0.3 mL blood was collected through tail vein and placed in EDTA anticoagulant tube for the determination of glycosylated hemoglobin (HbAlc). Another 0.5 mL blood was collected and centrifugated at 3000 rpm for 10 min to separate serum which then was determined by automatic biochemical analyzer Model 7020. The serum was separated and then blood glucose and blood lipid (GLU, TC, TG) and hepatorenal function (ALT, AST, ALP, BUN, CREA) were determined. The ZDF rats with blood glucose far from the mean value or having other abnormal indexes were removed and 18 ZDF rats with GLU close to the mean value were selected.
# Rats in each group were given the corresponding drug or solvent by gavage through oral once a day in the morning for 6 continuous weeks. Another 6 ZL rats were taken as normal control group.
# Every 2 weeks the rats were fasted but allowed free drinking for 10 h, the empty body weight was weighed and 0.5 mL blood was collected through the tail vein to determine the blood glucose levels. The levels of insulin, glycosylated hemoglobin and triglyceride were measured at the 4th week of administration and at the end of the administration. The levels of low density lipoprotein and high density lipoprotein were measured at the 6th week of administration. The urine samples were collected once before the end of the administration and 24 h (11:00 am to 11:00 am the next day) urine samples were collected to detect urinary albumin content in urine.
# Statistical analysis was performed with EXCEL 2007 software.
# [6] = 10 nM compound, — = no inhibitory activity
# [7] = oral 25 then 10 mg/kg/day, 4 weeks after the administration
# [8] = oral 25 then 10 mg/kg/day, 6 weeks after the administration
Structure (SMILES),inhibition at 0.1 µM [1],inhibition at 1 µM [1],inhibition at 0.01 µM [2],inhibition at 0.1 µM [2],inhibition at 0.01 µM [1],"inhibitory ratio, % on Lp-PLA2 (rat serum as the source of enzyme) [3, 6]","inhibitory ratio, % on Lp-PLA2 (rat serum as the source of enzyme) ([3]; 100 nM compound)",retinal thickness compared with the model control group [4],other results
CN(C)c1cc(OCc2cc(F)c(Oc3ccc(Cl)c(C(F)(F)F)c3)c(F)c2)nc(=O)n1C [Example 11],,,,,,,,significantly decreased,"blood glucose level compared with the model control group ([5]; oral 25 mg/kg/day first 4 days then 10 mg/kg/day, 2 weeks, 4 weeks and 6 weeks after administration): significantly decreased; insulin level compared with the model control group [5, 7]: significantly increased; triglyceride level compared with the model control group [5, 7]: significantly decreased; glycosylated hemoglobin levels compared to the model control group ([5]; oral 25 then 10 mg/kg/day, 4 weeks and 6 weeks after the administration): significantly reduced; insulin level compared with the model control group ([5]; oral 25 then 10 mg/kg/day, 6 weeks): remarkably increased; high-density lipoprotein level compared with the model control group [5, 8]: no significant change; level of low-density lipoprotein compared with the model control group [5, 8]: significantly reduced; urinary albumin levels in the urine compared with the model control group ([5]; oral 25 then 10 mg/kg/day, 24 h urine, 6 weeks after the administration): significantly reduced"
"CCN(CC)CCN(Cc1ccc(-c2ccc(C(F)(F)F)cc2)cc1)C(=O)Cn1c(SCc2ccc(F)cc2)nc(=O)c2c1CCC2 [darapladib, reference compound]",,,,,,,,significantly decreased,
Cn1c(N2CCC(F)(F)C2)cc(OCc2cc(F)c(Oc3ccc(Cl)c(C(F)(F)F)c3)c(F)c2)nc1=O [Example 16],77.4%,96.4%,55.3%,92.4%,13.2%,6.84%,50.35%,,
"Cn1c(N2CCOCC2)cc(OCCc2cc(F)c(Oc3ccc(Cl)c(C(F)(F)F)c3)c(F)c2)nc1=O [Example 5, 4-(4-(4-chloro-3-(trifluoromethyl)phenoxy)-3,5-difluorophenethyloxy)-1-methyl-6-morpholinopyrimidin-2(1H)-one]",93.8%,97.3%,~90%,100%,49.2%,18.21%,73.23%,,
"Cn1c(N2CCOCC2)cc(OCc2ccc(Oc3ccc(Cl)c(C(F)(F)F)c3)c(C#N)c2)nc1=O [Example 27, 2-(4-chloro-3-(trifluoromethyl)phenoxy)-5-((1-methyl-6-morpholinyl-2-oxo-1,2-dihydropyrimidin-4-oxy)methyl)benzonitrile]",,,,,,,,significantly decreased,

# Second part, led by results:
inhibition at 0.1 µM [1],inhibition at 1 µM [1],inhibition at 0.01 µM [2],inhibition at 0.1 µM [2],inhibition at 0.01 µM [1],"inhibitory ratio, % on Lp-PLA2 (rat serum as the source of enzyme) [3, 6]","inhibitory ratio, % on Lp-PLA2 (rat serum as the source of enzyme) ([3]; 100 nM compound)",Structure (SMILES),retinal thickness compared with the model control group [4],other results
54.1%,95.6%,53.9%,95.6%,,,,"CCn1c(N2CCOCC2)cc(OCc2cc(F)c(Oc3ccc(Cl)c(C(F)(F)F)c3)c(F)c2)nc1=O [Example 34, 4-(4-(4-chloro-3-(trifluoromethyl)phenoxy-3,5-difluorobenzyl)oxy)-1-ethyl-6-morpholinopyrimidin-2(1H)-one]",,
83.5%,97.1%,,,22.6%,,,Cn1c(N2CCOCC2)cc(OCc2cc(F)c(Oc3ccnc(C(F)(F)F)c3)c(F)c2)nc1=O [Example 29],,
59.7%,,53.6%,89.7%,,—,18.06%,"Cn1c(-c2ccccc2)cc(OCc2cc(F)c(Oc3ccc(Cl)c(C(F)(F)F)c3)c(F)c2)nc1=O [Example 19, 4-((4-(4-chloro-3-(trifluoromethyl)phenoxy)-3,5-difluorobenzyl)oxy)-1-methyl-6-phenylpyrimidin-2(1H)-one]",,
57.3%,93.5%,,,,,,Cn1c(N2CCOCC2)cc(OCc2cc(F)c(Oc3ccc(C(F)(F)F)nc3)c(F)c2)nc1=O [Example 26],,
54.2%,,46.9%,90.4%,,—,43.27%,"COc1ccc(-c2cc(OCc3cc(F)c(Oc4ccc(Cl)c(C(F)(F)F)c4)c(F)c3)nc(=O)n2C)cc1 [Example 20, 4-((4-(4-chloro-3-(trifluoromethyl)phenoxy)-3,5-difluorobenzyl)oxy)-6-(4-methoxyphenyl)-1-methylpyrimidin-2(1H)-one]",,
